Measured values as given in article PMC12007089, “Applying Isothermal Titration Calorimetry and Saturation Transfer Difference-NMR to Study the Mode of Interaction of Flavan-3-ols with α-Amylase to Understand Their Impact on Starch Hydrolysis” (Journal of Agricultural and Food Chemistry, 2025).
Read-outs that look alike come from different tables or passages of the source.

Columns and labels:
[1] = target: T1, porcine pancreatic α-amylase (Sus scrofa, UniProt P00690); test: Interaction studies by isothermal titration calorimetry (ITC); assay type: binding
T1 sequence (P00690 16-511): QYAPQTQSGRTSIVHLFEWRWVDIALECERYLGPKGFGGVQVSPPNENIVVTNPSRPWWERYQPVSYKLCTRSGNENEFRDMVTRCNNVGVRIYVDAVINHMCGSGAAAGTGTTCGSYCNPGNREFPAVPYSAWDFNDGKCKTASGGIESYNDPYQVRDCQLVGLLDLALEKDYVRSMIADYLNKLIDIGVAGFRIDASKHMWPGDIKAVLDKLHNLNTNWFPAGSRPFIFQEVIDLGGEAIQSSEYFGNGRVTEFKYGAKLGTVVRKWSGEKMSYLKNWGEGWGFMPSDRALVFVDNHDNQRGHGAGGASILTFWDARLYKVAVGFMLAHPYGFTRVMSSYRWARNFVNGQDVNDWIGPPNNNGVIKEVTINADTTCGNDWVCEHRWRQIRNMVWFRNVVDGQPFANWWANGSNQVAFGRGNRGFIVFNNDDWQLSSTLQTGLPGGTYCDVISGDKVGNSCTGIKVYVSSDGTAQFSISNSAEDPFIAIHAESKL
Protocol: Isothermal titration calorimetry was performed using an Affinity ITC LV with a cell volume of 182 μL (TA Instruments, Eschborn, Germany). Interaction experiments were recorded at 298 K with 0.1 mM rebuffered α-amylase in the sample cell and 4 mM flavan-3-ols in the injection syringe. For each ligand, experiments were performed with 25 injections of 3 μL and a spacing of 200 s between injections. Experiments were carried out in duplicates. Additional measurements were conducted in buffer to ensure that any mixing effects were negligible and that the observed heat development was solely attributed to the interaction studied (S4). In particular, at higher phenolic concentrations, endothermic peaks were observed, arising from the dilution effect.
The data analysis for the interaction studies was conducted using software NanoAnalyze, with manual integration of the peaks. To correct the data for noninteraction-related heats, the mean heat released during the final three injections was subtracted as a constant blank. This procedure is an effective estimation strategy that minimizes errors during the fitting process, provided that the protein is fully saturated.[35] The data were fitted using the “independent” model. To prevent overparametrization, n was set to 1, while Ka and ΔH were maintained as variables, as recommended for low-affinity binding.[35],[36] The stability of the ligand at room temperature was ensured by monitoring the concentrations prior to and following the experiment (S5).

[2] = target: T1, porcine pancreatic α-amylase; test: Continuous α-amylase activity assay (starch hydrolysis) by ITC; assay type: biochemical; conditions: for IC50: calculated according to the Cheng–Prussoff equation (eq 8) for a 1 M substrate
Protocol: Without rebuffering, α-amylase was diluted each day with 0.1 M phosphate buffer/0.04 M NaCl to a final dilution of 1:1000 and stored at 4 °C. […] The starch solution was prepared daily, according to the protocol recommended by Brodkorb et al. with some modifications.[37],[38]
The starch suspension in 0.1 M phosphate buffer/0.04 M NaCl was heated for 5 min under vigorous stirring. After cooling to room temperature, the solution was diluted to a final mass concentration of 40.5 g/L (equivalent to 250 mM based on the molecular weight of the glucose monomers). The concentration of starch is typically expressed as a percentage by weight (%, w/v) due to the inherent polydispersity of the molecule, which is influenced by the source of the natural starch, the manufacturing process, and the preparation of the sample.[28],[39] However, the calculation of inhibition constants requires the use of molarities.
Control experiments were performed with 12 nM α-amylase in 0.1 M phosphate buffer/0.04 M NaCl placed in the sample cell at 310 K, and various volumes (1–10 μL) of starch solution were recurrently injected up to three times with an injection interval of 1600 s. It was elucidated that the optimal volume for reaching the maximal turnover velocity (vmax) was 5 μL. Prior to measurement, α-amylase was incubated with the flavan-3-ols for 60 min at 277 K to ensure that adsorption equilibrium has been reached. This was compulsory as the time required for the ITC system to reach equilibrium and to start measurement varied considerably (10–25 min). To confirm α-amylase stability, controls without an inhibitor were performed at the beginning and the end of each day.
The release of heat during the conversion of starch was monitored, and calculations were performed using Microsoft Excel software. The detected thermal power is directly proportional to the enzymatic rate (v0) (eq 1 and 2).[40],[41] [drawing 1] 1 [drawing 2] 2
The heat rate (dQ/dt) is obtained as a function of time (t) and provides information about the conversion rate (ν). The reaction enthalpy (ΔRHapp) is calculated by integrating the heat peak over its entire extent and dividing the result by the number of substrate molecules converted by the enzyme (eq 3). The substrate concentration at time t ([S]t) is calculated according to eq 4. [drawing 3] 3 [drawing 4] 4
The Michaelis–Menten constant (Km) is defined as the substrate concentration at the time (t0.5) when the reaction rate reaches half-maximum (vmax) (eq 5). [drawing 5] 5
Thus, the thermogram provides all information to calculate inhibition constants. While competitive inhibition (Kic, eq 6) is based on the formation of an enzyme–inhibitor complex (EI), the uncompetitive inhibition (Kiu, eq 7) refers to the binding of a ternary enzyme–substrate–inhibitor complex (ESI). [drawing 6] 6 [drawing 7] 7
The maximal conversion rate vmax and the Michaelis–Menten constant Km are calculated from the control experiments in the absence of an inhibitor. In the presence of an inhibitor [I], the apparent values of [drawing 8] and [drawing 9] have been determined.
The inhibitor concentration that is required to reduce the conversion rate to 50% (IC50) depends on the substrate concentration [S] and is calculated according to the Cheng–Prussoff equation (eq 8).[42] [drawing 10] 8

[3] = 0.1 mM α-amylase, 4 mM flavan-3-ol, phosphate buffer, 298 K, n set to 1
[4] = 0.1 mM α-amylase, 4 mM flavan-3-ol, phosphate buffer, 298 K, n set to 1, read-out: Kd
[5] = phosphate buffer, 298 K, n set to 1
[6] = 100 μM flavan-3-ol, 310 K, initial injection, control 727 ± 103
[7] = 100 µM flavan-3-ol, inj. 2, read-out: Kic
[8] = 100 µM flavan-3-ol, inj. 2, read-out: Kiu
[9] = 100 µM flavan-3-ol, inj. 3, read-out: Kic
[10] = 100 µM flavan-3-ol, inj. 3, read-out: Kiu
[11] = competitive inhibition constant, 100 μM flavan-3-ol, 310 K, initial injection (inj. 1), read-out: Kic
[12] = relative to control, 100 μM flavan-3-ol, 12 nM α-amylase, starch, 310 K, initial injection (inj. 1)
[13] = relative to control, 100 μM flavan-3-ol, 310 K, initial injection
[14] = uncompetitive inhibition constant, 100 μM flavan-3-ol, 310 K, initial injection (inj. 1), read-out: Kiu
[15] = ITC, values as restated in the discussion
[16] = PC C1 concentrations of ∼105 μM, 310 K

Row | SMILES | Ka [1, 3] | Kd [1, 4] [µM] | ΔG [1, 5] [kcal/mol] | ΔH [1, 5] [kcal/mol] | α(Kic/Kiu) ([2]; 100 μM flavan-3-ol, 310 K) | ΔRHapp [2, 6] [kcal/mol] | vmax ([2]; 100 µM flavan-3-ol, inj. 2) [%] | Ki [2, 7] [µM] | Ki [2, 8] [µM] | vmax ([2]; 100 µM flavan-3-ol, inj. 3) [%] | Ki [2, 9] [µM] | Ki [2, 10] [µM] | Ki [2, 11] [µM] | vmax [2, 12] [%] | (dQ/dt)max [2, 13] [%] | ΔS [1, 5] [J/mol·K] | Ka [1, 15] [M^–1] | IC50 [2] [µM] | Ki [2, 14] [µM] | further results
1 | Oc1cc(O)c2c(c1)O[C@H](c1ccc(O)c(O)c1)[C@@H](O)C2 [CAT, (+)-Catechin] | 2.1±0.0 10^3 M^-1 | 500 | -4.54 ± 0 | -12.7 ± 1.1 | 0.8 ± 0.4 | 0.162 ± 0.0335 | 78±5 | 447 ± 151 | 403 ± 134 | 79±2 | 458 ± 152 | 399 ± 54 | 356 ± 209 | 79 ± 6 | 80 ± 13 |  |  | 431 ± 217 | 431 ± 217 | 
2 | Oc1cc(O)c2c(c1)O[C@H](c1ccc(O)c(O)c1)[C@H](O)C2 [EC, (−)-Epicatechin] |  | 300 | -4.78 ± 0.048 | -17.2 ± 1.67 | 0.7 ± 0.1 | 0.195 ± 0.0127 | 77±5 | 305 ± 162 | 389 ± 41 | 76±3 | 291 ± 80 | 330 ± 52 |  | 78 ± 4 | 82 ± 8 | -173±24 |  |  |  | Kd ([1]; Ka, 0.1 mM α-amylase, 4 mM flavan-3-ol, phosphate buffer, 298 K, n set to 1): 263 µM
3 | Oc1cc(O)c2c(c1)O[C@H](c1ccc(O)c(O)c1)[C@H](O)[C@H]2c1c(O)cc(O)c2c1O[C@H](c1ccc(O)c(O)c1)[C@H](O)[C@H]2c1c(O)cc(O)c2c1O[C@H](c1ccc(O)c(O)c1)[C@H](O)C2 [PC C1, procyanidin C1] |  |  |  |  | 0.9 ± 0.1 | 0.143 ± 0.00789 | 50±5 | 143 ± 56 | 102 ± 19 | 59±2 | 395 ± 78 | 145 ± 14 |  | 50 ± 4 | 44 ± 4 |  |  | 103 ± 16 | 103 ± 16 | interaction with α-amylase observed by ITC ([1]; 0.1 mM α-amylase, 4 mM ligand, 298 K): no observable interaction; reduction in α-amylase activity ([2]; 100 μM PC C1): 50%; (dQ/dt)max [2, 16]: 23 ± 0%; ΔRHapp [2, 16]: 0.0406 ± 0.01 kcal/mol; vmax ([2]; PC C1 concentrations of ∼105 μM, 310 K, value printed in brackets): (98 ± 21) %

Second part, led by results:

Row | Ka [1, 3] | Kd [1, 4] [µM] | ΔG [1, 5] [kcal/mol] | ΔH [1, 5] [kcal/mol] | α(Kic/Kiu) ([2]; 100 μM flavan-3-ol, 310 K) | ΔRHapp [2, 6] [kcal/mol] | vmax ([2]; 100 µM flavan-3-ol, inj. 2) [%] | Ki [2, 7] [µM] | Ki [2, 8] [µM] | vmax ([2]; 100 µM flavan-3-ol, inj. 3) [%] | Ki [2, 9] [µM] | Ki [2, 10] [µM] | Ki [2, 11] [µM] | vmax [2, 12] [%] | (dQ/dt)max [2, 13] [%] | ΔS [1, 5] [J/mol·K] | Ka [1, 15] [M^–1] | SMILES | IC50 [2] [µM] | Ki [2, 14] [µM] | further results
4 | 1.1±0.1 10^3 M^-1 | 900 | -4.06 ± 0.024 | -5.26 ± 0.359 | 0.7 ± 0.2 | 0.156 ± 0.0229 | 65±8 | 216 ± 65 | 208 ± 78 | 70±1 | 539 ± 86 | 240 ± 14 | 155 ± 79 | 66 ± 9 | 66 ± 14 | -16±5 | 1100 | Oc1cc(O)c2c(c1)O[C@H](c1ccc(O)c(O)c1)[C@H](O)[C@H]2c1c(O)cc(O)c2c1O[C@H](c1ccc(O)c(O)c1)[C@@H](O)C2 [PC B1, procyanidin B1] |  |  | 
5 | 0.9±0.1 10^3 M^-1 | 1100 ± 100 | -4.06 ± 0.048 | -1.9 ± 0.096 | 1.0 ± 0.1 | 0.205 ± 0.00789 | 62±6 | 188 ± 34 | 195 ± 57 | 61±7 | 202 ± 73 | 165 ± 49 |  | 62 ± 4 | 56 ± 4 | 31±1 | 900 | Oc1cc(O)c2c(c1)O[C@H](c1ccc(O)c(O)c1)[C@H](O)[C@H]2c1c(O)cc(O)c2c1O[C@H](c1ccc(O)c(O)c1)[C@H](O)C2 [PC B2, procyanidin B2] |  |  | 
